From patent US11464772B2, “Methods of treating acute or chronic pain” (priority 2017, dated 2022)

How the values were obtained:
[1] = tested on: rat models of neuropathic pain; conditions: rat models of neuropathic pain (Field et al. 1999); cited from earlier work
[2] = tested on: rats post spinal nerve ligation; test: Spinal nerve ligation (SNL), von Frey mechanical withdrawal (FIG. 3); format: in vivo, Sprague Dawley rats; conditions: oral, 100 mg/kg, 14 days post-SNL, tested 1, 2 and 4 hours
Procedure: Ligation of the L5 and L6 spinal nerves in rats leads to a robust pain state, characterized by tactile allodynia and mechanical hyperalgesia that can be assayed using the von Frey or Hargreaves assays (Kim, S. H. and Chung, J. M. Pain 50 (1992): 355-63). Sprague Dawley rats were housed in the animal vivarium 2 weeks prior to testing and housed on a 12 h light/dark cycle with food and water ad libitum. Under general anesthesia, the L5 and L6 spinal nerves on one side of the rat spine were tightly ligated using sterile surgical suture (Spinal Nerve Ligation, SNL). The incision site of each animal was then closed using standard surgical technique. Spared Nerve Injury: Animals were anesthetized by 2% isoflurane with 98% oxygen inhalation. […] The mechanical allodynia were measured at 60 minutes after administration every day (von Frey Cilia Apparatus, manufactured by Institute of Biology Bioengineering, Chinese Academy of Medical Science).
Baseline mechanical (von Frey) withdrawal responses were tested immediately before SNL surgery and 14 days after. […] Immediately after the 14-day post-surgical baseline responses were measured, Compound A (100 mg/kg), Gabapentin (100 mg/kg), or vehicle (control) were administered orally and voluntary withdrawal from von Frey mechanical stimuli were tested 1 hour, 2 hours and 4 hours later (FIG. 3). […]

[3] = tested on: rats after intraplantar incision; test: Rodent paw incision, Hargreaves thermal withdrawal assay (FIG. 1); format: in vivo, Sprague Dawley rats; conditions: intravenous, 30 mg/kg, post-surgery baseline, tested 0.5-4 hours
Procedure: The rodent paw incision model involves inducing a surgical incision to the plantar surface of the back paw of a mouse or rat, suturing the incision closed, then testing the area proximal to the wound for changes in sensory perception, such as allodynia or hypersensitivity, at some point in time after the incision (typically 24 hours later)(Brennan T J et al. Pain. 1996 March, 64(3):493-501). Thermal (Hargreaves) and mechanical (von Frey) sensory testing is performed before and 24 hours after surgical incision of the plantar surface of the left back paw of laboratory rats, at a plantar area adjacent to the incision. […]
Plantar incision of the hind paw of the rat produces a profound local inflammatory response characterized by pain hypersensitivity (allodynia) 24 hours after surgery in rats, in similar manner to the post-operative pain observed in humans (Brennan, T. J. et al. Pain. 1996 March; 64(3):493-501). […] Three days prior to testing the compound, thermal (Hargreaves) and mechanical (von Frey) sensitivity were measured using standard techniques described below. […] The thermal sensitivities of the animals were measured before surgery and 24 hours after surgery using the Hargreaves Thermal Withdrawal Assay (FIG. 1) (Kim, S. H. and Chung, J. M. Pain 50 (1992): 355-63). […]

| Compound | blocking of static and dynamic allodynia [1] | also measured |
| --- | --- | --- |
| CN1CC[C@]23c4c5ccc(O)c4O[C@H]2[C@@H](O)C=C[C@H]3[C@H]1C5 [morphine] | blocking only static allodynia, and not dynamic allodynia |  |
| NCC1(CC(=O)O)CCCCC1 [gabapentin] |  | reversal of reduced mechanical withdrawal thresholds post spinal nerve ligation [2]: reversed |
| CC(C)Cc1ccc(C(C)C(=O)O)cc1 (stereo not shown) [ibuprofen] |  | reversal of reductions in thermal withdrawal thresholds after intraplantar incision [3]: not reversed |
| CC(C)C[C@H](CN)CC(=O)O [pregablin] | blocking both types of allodynia |  |
